The values below are quoted from earlier work in US8109913B2, “Coiled wire for the controlled release of drugs to the eye” (DSM IP Assets B.V., priority 2005, dated 2012).

For series [1] the following is noted: in vivo, device loaded with atropine.
The conditions of series [2]: in vitro.

Take `CN1[C@@H]2CC[C@H]1C[C@@H](OC(=O)C(CO)c1ccccc1)C2` (some centres unmarked) [atropine]: the Mydriasis entry in series [1] is “mydriasis can be obtained”.
`N#Cc1c(N2C[C@@H]3CCCN[C@@H]3C2)c(F)cc2c(=O)c(C(=O)O)cn(C3CC3)c12` [pradofloxacin]: in series [2], the “Activity of the drug when released from the coating” value is “still active”.
